Data published in patent US9452985B2, “Tau imaging probe” (GE Healthcare Limited, priority 2010, dated 2016).

Key:
neurofibrillary tangles = assay: Staining test on brain section of Alzheimer's disease patients; assay type: binding, human; details: 100 μM solution in 50% ethanol, 10 minutes, fluorescence microscope
Source text: The procedure of staining test on the compounds of the present invention on the brain section of Alzheimer's disease patients is described below:
(1) We used the brain specimens of the temporal lobe or hippocampus from patients who were definitely diagnosed as having Alzheimer's disease pathology. The specimens were obtained from Choju Medical Institute, Fukushimura Hospital, our collaborating research institute, and the consent for use for research purposes was obtained from the patients' bereaved family (Fukushimura Hospital, Ethics Committee Approval No. 20).
(2) The paraffin-embedded brain tissue was sliced to 6 or 8 μm thickness, extended on a slide glass, and dried. The paraffinized brain section was deparaffinized by washing with xylene for 10 minutes×2, 100% ethanol for 5 minutes×2, 90% ethanol for 5 minutes, and running water for 10 minutes in this order.
(3) As a pretreatment for staining with the compounds of the present invention, the treatment to remove autofluorescence with lipofuscin was performed. First, the paraffinized brain section was immersed in 0.25% KMnO4 solution for 20 minutes. It was washed with PBS for 2 minutes twice, immersed in a 0.1% K2S2O5/oxalic acid solution for approximately 5 minutes, and further washed with PBS for 2 minutes 3 times.
(4) From 100 μM solution of the compounds of the present invention dissolved in 50% ethanol, approximately 150 μl was dropped on the section to react for 10 minutes. After being immersed in tap water 5 times, it was mounted with Flour Save Reagent (Calbiochem) and examined with a fluorescence microscope (Nikon, ECLIPSE 80i). The images were taken with a digital camera (Nikon, Dxin1200F or Photometrics, Cool SNAP ES).

[1] = test system: neurofibrillary tangles (tau protein); assay: Autoradiography experiments using [^18F] THK-5105, [^18F] THK-5117 and [^18F] THK-5125; assay type: binding, human; details: hippocampus section and adjacent sections, higher magnification images
Procedure: Paraffin-embedded sections of the brain from an Alzheimer's disease patient were deparaffinized, and then immersed in PBS for 10 minutes. Approximately 400 μCi/ml of each of [^18F] THK-5105, [^18F] THK-5117, and [^18F] THK-5125 was added dropwise to deparaffinized sections and allowed to react for 10 minutes at room temperature. After that, the sections were immersed in distilled water for 2 minutes, shaken lightly in 50% EtOH for 2 minutes, immersed again in distilled water for 2 minutes, and dried in a paraffin stretching device. The section was left overnight in contact with an imaging plate. Next day, the image was read with a BAS 5000 (Fujifilm Corporation). In addition, adjacent sections were immunostained with anti-phosphorylated tau antibody (AT8).

K18-ΔK280 aggregates = K18-ΔK280 aggregates (Homo sapiens (Human), UniProt P10636, DEL597-597); assay: Saturation binding test of THK-5105; details: [^18F] THK-5105 0.1 to 100 nM, K18-ΔK280 aggregates 200 nM, room temperature, one hour; read-out: dissociation constant Kd
Chain of K18-ΔK280 aggregates (P10636 other isoform, or with tags, fused parts or gaps del 597-597): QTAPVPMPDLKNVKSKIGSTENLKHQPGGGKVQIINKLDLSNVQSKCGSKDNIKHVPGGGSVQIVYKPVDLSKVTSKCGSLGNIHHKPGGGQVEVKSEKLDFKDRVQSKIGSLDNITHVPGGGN
Procedure: Regarding the binding of tau imaging probes to tau protein aggregates, a binding test was carried out and evaluated using a K18-ΔK280 construct which contained a 4-repeat structure involved in the formation of beta-sheet structures in the htau40 protein. For K18-ΔK280 (Martin von Bergen et al., THE JOURNAL OF BIOLOGICAL CHEMISTRY (2001), vol. 276, pp. 48165-48174; M. Goedert et al., NEURON (1989), vol. 3, pp. 519-526), an artificial gene fragment which was prepared based on its amino acid sequence was cloned into a pET-3a vector, the resulting plasmid was used to transform Escherichia coli BL21 (DE3) competent cells for protein expression, and the recombinant Escherichia coli cell was cultured to express K18-ΔK280. […]
K18-ΔK280 aggregates were made by preparing 20 μM PBS (pH 7.4) and incubating the K18-ΔK280 in the PBS at 37° C. for 4 days. The state where beta-sheet structures in K18-ΔK280 aggregates were formed was ascertained by thioflavin S fluorescence binding test. […]
In the binding test of [^18F] […] THK-5105 to K18-ΔK280 aggregates was calculated from the radioactivity of the filter which was measured on a gamma counter (AccuFLEX γ7000, Aloka). Non-specific binding was determined by adding unlabeled THK-5105 (at a final concentration of 2 μM) to the reaction system and performing experiments in a similar way.

Compound: CN(C)c1ccc(-c2ccc3cc(OCC(O)CF)ccc3n2)cc1 (stereo not drawn) [THK-5105, 6-[(3-fluoro-2-hydroxy)propoxy]-2-(4-dimethylaminophenyl)quinoline]
- binding to neurofibrillary tangles in the brain section of Alzheimer's disease patients (staining test) (neurofibrillary tangles): bind to neurofibrillary tangles specifically and selectively
- correspondence of autoradiography / unlabeled staining image with anti-phosphorylated tau antibody (AT8) immunostaining [1]: corresponded well with the image of immunostaining with the anti-phosphorylated tau antibody
- Kd (K18-ΔK280 aggregates): 3.9 nM
